In patent US20240174690A1, “ANNULATED 2-AMINO-3-CYANO THIOPHENES AND DERIVATIVES FOR THE TREATMENT OF CANCER” (BOEHRINGER INGELHEIM INTERNATIONAL GMBH, priority 2021, published 2024):
In brackets after ≈: the same amount, converted by molar mass. Read-outs that look alike come from different tables or passages of the source.

Assays:
[1] = tested on: KRAS G12C-dependent Ba/F3 cells; test: Ba/F3 proliferation assay, KRAS G12C; format: cell-based; settings: Mus musculus, BaF3, 72 h, AlamarBlue
Description: Plasmids containing KRASG12 mutants (i.e. […], G12C, G12V) are obtained from GeneScript. To generate KRASG12-dependent Ba/F3 models, Ba/F3 cells are transduced with retroviruses containing vectors that harbor KRASG12 isoforms. Platinum-E cells (Cell Biolabs) are used for retrovirus packaging. Retrovirus is added to Ba/F3 cells. To ensure infection, 4 μg/mL polybrene is added and cells are spinfected. […] Cells with an infection efficiency of 10% to 20% are further cultivated and puromycin selection with 1 μg/mL is initiated. As a control, parental Ba/F3 cells are used to show selection status. Selection is considered successful when parental Ba/F3 cells cultures died. To evaluate the transforming potential of KRASG12 mutations, the growth medium is no longer supplemented with IL-3. Ba/F3 cells harboring the empty vector are used as a control. Approximately ten days before conducting the experiments, puromycin is left out.
Compounds are added using an Access Labcyte Workstation with a Labcyte Echo 550 or 555 accoustic dispenser. All treatments are performed in technical duplicates. […] AlamarBlue™ (ThermoFisher), a viability stain, is added and fluorescence measured in the PerkinElmer Envision HTS Multilabel Reader. The raw data are imported into and analyzed with the Boehringer Ingelheim proprietary software MegaLab (curve fitting based on the program PRISM, GraphPad Inc.).

NCI-H358 cells = test: NCI-H358 CTG proliferation assay (120 h) (NSCLC, G12C); format: cell-based, human; settings: Homo sapiens
Description: NCI-H358 CTG Proliferation Assay (120 h) (NSCLC, G12C)
NCI-H358 cells (ATCC No. CRL-5807) are dispensed into white bottom opaque 96 well plates (Perkin Elmer cat no. 5680) at a density of 2000 cells per well in 100 μL RPMI-1640 ATCC-Formulation (Gibco #A10491)+10% FCS (fetal calf serum) (assay 1) or into black 384-well plates, flat and clear bottom (Greiner, PNr. 781091) at a density of 200 cells per well in 60 μl RPMI-1640 ATCC-Formulation (Gibco #A10491)+10% FCS (fetal calf serum) (assay 2). […] Compounds (10 mM stock in DMSO) are added at logarithmic dose series using the HP Digital Dispenser D300 (Tecan) (assay 1) or the ECHO acoustic liquid handler system (Beckman Coulter) (assay 2), normalizing for added DMSO and including DMSO controls. For the TO time point measurement, untreated cells are analyzed at the time of compound addition. Plates are incubated for 120 h, and cell viability is measured using CellTiter-Glo luminescent cell viability reagent (Promega product code G7570). Viability (stated as percent of control) is defined as relative luminescence units RLU of each well divided by the RLU of cells in DMSO controls. IC50 values are determined from viability measurements by non-linear regression using a four parameter model.

NCI-H2122 cells = test: NCI-H2122 CTG proliferation assay (120 h) (NSCLC, G12C); format: cell-based; settings: Homo sapiens
Description: NCI-H2122 CTG Proliferation Assay (120 h) (NSCLC, G12C)
The CTG assay is designed to measure quantitatively the proliferation of NCI-H2122 cells (ATCC CRL-5985), using the CellTiter Glow Assay Kit (Promega G7571). Cells are grown in RPMI medium (ATCC) supplemented with Fetal Calf Serum (Life Technologies, Gibco BRL, Cat. No. 10270-106). On “day 0” 200 NCI-H2122 cells are seeded in 60 μL RPMI ATCC+10% FCS+Penstrep in a black 384-well plate, flat and clear bottom (Greiner, PNr. 781091). Cells are then incubated in the plates at 37° C. in a CO2 incubator overnight. On day 1, compounds (10 mM stock in DMSO) are added with the ECHO acoustic liquid handler system (Beckman Coulter), including DMSO controls. Plates are incubated for 120 h, and cell viability is measured using CellTiter-Glo luminescent cell viability reagent (Promega product code G7570). Viability (stated as percent of control) is defined as relative luminescence units RLU of each well divided by the RLU of cells in DMSO controls. IC50 values are determined from viability measurements by non-linear regression using a four parameter model.

SAS cells = test: SAS CTG proliferation assay (120 h) (HNSCC, wt amplified); format: cell-based
Description: SAS CTG Proliferation Assay (120 h) (HNSCC, Wt Amplified)
SAS cells (JCRB0260) are dispensed into 384-well plates, flat and clear bottom (Greiner, PNr. 781091) at a density of 300 cells per well in 60 μL DMEM:F12 (Gibco 31330-038)+10% Fetal Calf Serum (HyClone, PNr.: SH30084.03) and incubated at 37° C. in a CO2 incubator overnight. The next day, compounds (10 mM stock in DMSO) are added with the ECHO acoustic liquid handler system (Beckman Coulter), including DMSO controls. Plates are incubated for 120 h, and cell viability is measured using CellTiter-Glo luminescent cell viability reagent (Promega product code G7570). Viability (stated as percent of control) is defined as relative luminescence units RLU of each well divided by the RLU of cells in DMSO controls. IC50 values are determined from viability measurements by non-linear regression using a four-parameter model.

[2] = Solubility measurement (DMSO solution method), McIlvaine buffer pH 4.5 or 6.8; format: physicochemical; settings: aqueous buffer, kinetic from dmso stock, DMSO stock diluted to 250 μM, 24 h shaking at ambient temperature
Description: The DMSO solution is diluted with an aqueous medium (Mcllvaine buffer with pH=4.5 or 6.8) to a final concentration of 250 μM. After 24 h of shaking at ambient temperature a potentially formed precipitate is removed by filtration. The concentration of the test compound in the filtrate is determined by LC-UV methods by calibrating the signal to the signal of a reference solution with complete dissolution of the test compound in acetonitrile/water (1:1) with known concentration.

[3] = assay 2, CTG, read-out: H358 (assay 2) IC50
[4] = McIlvaine buffer pH 4.5, read-out: solubility pH 4.5
[5] = McIlvaine buffer pH 6.8, read-out: solubility pH 6.8
[6] = assay 1, CTG, read-out: H358 (assay 1) IC50

Structure (SMILES) | IC50 [1] | IC50 (NCI-H358 cells; [3]) | IC50 (NCI-H2122 cells) | IC50 (SAS cells) | solubility at 24 h [2, 4] | solubility at 24 h [2, 5] | IC50 (NCI-H358 cells; [6])
C[C@H](Oc1cc(N2CC[C@H](N(C)C)C2)nc(-c2onc3c2CCC[C@@]32CCCc3sc(N)c(C#N)c32)n1)[C@@H]1CCCN1C [I-11] | 331 nM | 1980 nM | 2560 nM | 651 nM | > 141 µg/mL | 112 µg/mL (≈ 186 µM) | 
C[C@H](Oc1cc(N2CC[C@H](N(C)C)C2)nc(-c2noc3c2CCC[C@@]32CCCc3sc(N)c(C#N)c32)n1)[C@@H]1CCCN1C [II-49] | 329 nM | 1910 nM | 2840 nM | 1180 nM | > 141 µg/mL | 114 µg/mL (≈ 189 µM) | 
C[C@H](Oc1cc(N2CCNC[C@]23CCOC3)nc(-c2noc3c2CCC[C@@]32CCCc3sc(N)c(C#N)c32)n1)[C@@H]1CCCN1C [II-50] | 270 nM | 2710 nM | 2680 nM | 41 nM | > 144 µg/mL | > 135 µg/mL | 
C[C@H](Oc1cc(N2CCNC[C@@]23CCOC3)nc(-c2noc3c2CCC[C@@]32CCCc3sc(N)c(C#N)c32)n1)[C@@H]1CCCN1C [II-51] | 314 nM | 3360 nM | 2560 nM | 70 nM | > 138 µg/mL | > 133 µg/mL | 
C[C@H](Oc1cc(N2CCNC3(CC3)C2)nc(-c2noc3c2CCC[C@@]32CCCc3sc(N)c(C#N)c32)n1)[C@@H]1CCCN1C [II-54] | 74 nM | 908 nM | 1770 nM | 234 nM | > 134 µg/mL | > 122 µg/mL | 298 nM
C[C@H](Oc1cc(N2CCN(C)CC2)nc(-c2noc3c2CCC[C@@]32CCCc3sc(N)c(C#N)c32)n1)[C@@H]1CCCN1C [II-55] | 297 nM | 588 nM | 4910 nM | 968 nM | > 172 µg/mL | > 161 µg/mL | 
C[C@H](Oc1cc(N2C[C@H](C)N[C@@H](C)C2)nc(-c2noc3c2CCC[C@@]32CCCc3sc(N)c(C#N)c32)n1)[C@@H]1CCCN1C [II-56] | 233 nM | 173 nM | 3190 nM | 1430 nM | > 144 µg/mL | > 146 µg/mL | 587 nM
C[C@H](Oc1cc(N2CCC[C@H](O)C2)nc(-c2noc3c2CCC[C@@]32CCCc3sc(N)c(C#N)c32)n1)[C@@H]1CCCN1C [II-57] | 38 nM | 286 nM | 916 nM | 54 nM | 109 µg/mL (≈ 185 µM) | 101 µg/mL (≈ 171 µM) | 
CO[C@@H]1C[C@@H]([C@H](C)Oc2cc(-n3ccnc3)nc(-c3noc4c3CCC[C@@]43CCCc4sc(N)c(C#N)c43)n2)N(C)C1 [II-58] | 41 nM | 562 nM | 904 nM | 342 nM | > 124 µg/mL | 2 µg/mL (≈ 3.41 µM) | 
C[C@H](Oc1cc(N2CCC[C@@H](O)C2)nc(-c2noc3c2CCC[C@@]32CCCc3sc(N)c(C#N)c32)n1)[C@@H]1CCCN1C [II-59] | 31 nM | 337 nM | 1350 nM | 31 nM | > 133 µg/mL | > 123 µg/mL | 
